According to ChEMBL document CHEMBL1268981, “2-Methyl-3-furanyl-4H-1,2,4-triazol-3-ylthioamides: a new class of selective orexin 2 antagonists” (Bioorg Med Chem Lett, 2010):
Calls of active or inactive are those of the source. The calls are words filed in the database; no cut-off is given here.

What was measured:
[1] = target: T1, Orexin/Hypocretin receptor type 1 (Homo sapiens, UniProt O43613); test: Antagonist activity against human orexin 1 receptor expressed in CHO cells assessed as effect in calcium mobilization by FLIPR assay; type: functional, cell-based
T1 sequence (O43613 whole entry): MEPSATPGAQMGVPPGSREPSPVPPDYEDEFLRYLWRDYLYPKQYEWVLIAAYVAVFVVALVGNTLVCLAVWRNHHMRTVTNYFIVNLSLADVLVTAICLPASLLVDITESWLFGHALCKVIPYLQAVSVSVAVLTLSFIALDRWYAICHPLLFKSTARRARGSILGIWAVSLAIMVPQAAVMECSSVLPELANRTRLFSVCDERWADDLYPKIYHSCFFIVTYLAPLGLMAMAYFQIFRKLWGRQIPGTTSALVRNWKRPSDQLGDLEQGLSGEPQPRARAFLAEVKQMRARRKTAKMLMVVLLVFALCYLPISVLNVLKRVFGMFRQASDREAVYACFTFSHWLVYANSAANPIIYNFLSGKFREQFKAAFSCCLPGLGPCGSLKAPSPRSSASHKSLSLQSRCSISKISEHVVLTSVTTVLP

Orexin receptor type 2 = target: T2, Orexin receptor type 2 (Homo sapiens, UniProt O43614); test: Antagonist activity against human orexin 2 receptor expressed in CHO cells assessed as effect in calcium mobilization by FLIPR assay; type: functional, cell-based
T2 sequence (O43614 whole entry): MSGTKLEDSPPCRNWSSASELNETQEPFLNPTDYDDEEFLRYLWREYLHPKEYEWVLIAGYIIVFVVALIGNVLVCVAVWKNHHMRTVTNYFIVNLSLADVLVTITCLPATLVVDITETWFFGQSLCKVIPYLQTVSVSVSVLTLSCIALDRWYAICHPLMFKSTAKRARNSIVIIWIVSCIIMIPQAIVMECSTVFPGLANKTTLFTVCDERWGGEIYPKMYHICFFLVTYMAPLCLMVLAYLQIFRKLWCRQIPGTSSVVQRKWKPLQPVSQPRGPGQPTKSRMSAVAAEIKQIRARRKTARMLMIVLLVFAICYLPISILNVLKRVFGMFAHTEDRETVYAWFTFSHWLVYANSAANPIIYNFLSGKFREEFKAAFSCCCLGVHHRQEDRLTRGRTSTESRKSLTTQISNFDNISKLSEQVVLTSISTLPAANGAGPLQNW

[2] = target: T3, Orexin receptor type 2 (Rattus norvegicus) (UniProt P56719); test: Antagonist activity against rat orexin 2 receptor expressed in RBL cells by [3H]inositol phosphate accumulation assay; type: functional, cell-based
T3 sequence (whole entry): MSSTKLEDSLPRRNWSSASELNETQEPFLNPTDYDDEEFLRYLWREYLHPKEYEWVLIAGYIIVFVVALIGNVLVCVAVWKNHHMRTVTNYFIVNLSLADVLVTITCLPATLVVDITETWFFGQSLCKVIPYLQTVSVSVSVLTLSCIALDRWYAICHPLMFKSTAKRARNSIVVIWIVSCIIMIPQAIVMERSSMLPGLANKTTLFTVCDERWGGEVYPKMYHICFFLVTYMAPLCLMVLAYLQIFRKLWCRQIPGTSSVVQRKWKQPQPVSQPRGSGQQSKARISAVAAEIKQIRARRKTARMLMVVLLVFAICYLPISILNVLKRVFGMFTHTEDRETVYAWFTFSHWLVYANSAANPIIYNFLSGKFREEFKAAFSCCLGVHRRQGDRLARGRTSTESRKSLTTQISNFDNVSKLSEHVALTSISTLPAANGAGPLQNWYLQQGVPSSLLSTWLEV

[3] = target: T4, Orexin/Hypocretin receptor type 1 (Rattus norvegicus) (UniProt P56718); test: Antagonist activity against rat orexin 1 receptor expressed in RBL cells by [3H]inositol phosphate accumulation assay; type: functional, cell-based
T4 sequence (whole entry): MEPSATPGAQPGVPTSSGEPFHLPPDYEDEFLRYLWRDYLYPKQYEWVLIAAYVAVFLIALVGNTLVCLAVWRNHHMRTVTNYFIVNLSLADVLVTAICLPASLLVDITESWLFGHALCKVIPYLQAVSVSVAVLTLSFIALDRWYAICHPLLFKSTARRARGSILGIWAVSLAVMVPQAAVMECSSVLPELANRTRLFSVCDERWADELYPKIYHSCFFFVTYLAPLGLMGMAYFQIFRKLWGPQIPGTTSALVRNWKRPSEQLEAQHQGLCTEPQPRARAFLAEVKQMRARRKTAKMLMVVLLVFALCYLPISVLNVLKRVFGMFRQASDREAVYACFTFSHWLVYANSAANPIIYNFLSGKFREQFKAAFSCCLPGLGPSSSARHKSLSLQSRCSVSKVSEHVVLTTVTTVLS

Cytochrome P450 1A2 = target: T5, Cytochrome P450 1A2 (Homo sapiens, UniProt P05177); test: Inhibition of CYP1A2 by CYPEX bactosome P450 inhibition assay; type: ADME
T5 sequence (P05177 whole entry): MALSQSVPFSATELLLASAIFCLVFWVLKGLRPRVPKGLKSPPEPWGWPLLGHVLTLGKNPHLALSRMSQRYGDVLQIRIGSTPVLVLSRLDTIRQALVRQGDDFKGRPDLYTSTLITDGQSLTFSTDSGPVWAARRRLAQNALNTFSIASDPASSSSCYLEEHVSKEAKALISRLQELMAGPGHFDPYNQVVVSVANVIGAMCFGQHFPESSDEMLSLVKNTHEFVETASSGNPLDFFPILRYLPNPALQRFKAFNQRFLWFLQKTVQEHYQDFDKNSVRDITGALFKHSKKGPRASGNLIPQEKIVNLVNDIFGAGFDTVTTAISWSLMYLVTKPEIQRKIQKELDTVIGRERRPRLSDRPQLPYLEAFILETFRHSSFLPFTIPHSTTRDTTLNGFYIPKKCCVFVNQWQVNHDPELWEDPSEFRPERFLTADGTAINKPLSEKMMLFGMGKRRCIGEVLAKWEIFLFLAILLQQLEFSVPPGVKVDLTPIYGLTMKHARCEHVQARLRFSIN

Cytochrome P450 2C9 = Cytochrome P450 2C9 (Homo sapiens, UniProt P11712); test: Inhibition of CYP2C9 by CYPEX bactosome P450 inhibition assay; type: ADME
Cytochrome P450 2C19 = Cytochrome P450 2C19 (Homo sapiens, UniProt P33261); test: Inhibition of CYP2C19 by CYPEX bactosome P450 inhibition assay; type: ADME
Cytochrome P450 2D6 = Cytochrome P450 2D6 (Homo sapiens, UniProt P10635); test: Inhibition of CYP2D6 by CYPEX bactosome P450 inhibition assay; type: ADME
Cytochrome P450 3A4 [4] = target: T6, Cytochrome P450 3A4 (Homo sapiens, UniProt P08684); test: Inhibition of CYP3A4 by CYPEX bactosome P450 inhibition assay; type: ADME
Cytochrome P450 3A4 [5] = target: T6, Cytochrome P450 3A4; test: Inhibition of CYP3A4 using DEF substrate by CYPEX bactosome P450 inhibition assay; type: ADME

T6 sequence (P08684 whole entry): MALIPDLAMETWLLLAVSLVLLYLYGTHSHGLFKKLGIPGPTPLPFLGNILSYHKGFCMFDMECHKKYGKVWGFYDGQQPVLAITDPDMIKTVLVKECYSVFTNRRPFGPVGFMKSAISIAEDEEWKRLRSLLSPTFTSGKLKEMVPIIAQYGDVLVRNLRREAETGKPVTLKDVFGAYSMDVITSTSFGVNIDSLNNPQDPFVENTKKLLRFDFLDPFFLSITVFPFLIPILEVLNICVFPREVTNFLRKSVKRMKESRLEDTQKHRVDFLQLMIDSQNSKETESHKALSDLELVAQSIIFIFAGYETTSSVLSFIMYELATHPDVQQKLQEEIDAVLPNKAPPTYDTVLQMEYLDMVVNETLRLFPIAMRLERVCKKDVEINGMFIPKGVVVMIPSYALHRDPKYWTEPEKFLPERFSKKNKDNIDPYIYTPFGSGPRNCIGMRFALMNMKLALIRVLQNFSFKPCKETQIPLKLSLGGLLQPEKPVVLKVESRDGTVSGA
Sequence of Cytochrome P450 2C9 (P11712 whole entry): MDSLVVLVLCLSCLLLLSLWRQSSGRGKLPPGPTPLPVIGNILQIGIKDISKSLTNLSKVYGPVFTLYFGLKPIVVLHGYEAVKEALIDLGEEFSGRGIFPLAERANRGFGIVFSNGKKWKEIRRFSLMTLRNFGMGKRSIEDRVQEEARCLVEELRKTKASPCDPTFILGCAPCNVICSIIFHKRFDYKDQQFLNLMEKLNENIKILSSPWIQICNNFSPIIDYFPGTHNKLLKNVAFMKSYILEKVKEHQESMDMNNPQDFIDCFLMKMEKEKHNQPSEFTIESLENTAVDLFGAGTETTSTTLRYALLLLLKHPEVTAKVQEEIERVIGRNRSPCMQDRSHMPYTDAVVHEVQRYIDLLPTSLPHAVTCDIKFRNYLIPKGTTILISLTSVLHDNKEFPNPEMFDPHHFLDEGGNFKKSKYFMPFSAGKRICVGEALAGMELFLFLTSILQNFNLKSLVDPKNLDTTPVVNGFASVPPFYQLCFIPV
Sequence of Cytochrome P450 2C19 (P33261 whole entry): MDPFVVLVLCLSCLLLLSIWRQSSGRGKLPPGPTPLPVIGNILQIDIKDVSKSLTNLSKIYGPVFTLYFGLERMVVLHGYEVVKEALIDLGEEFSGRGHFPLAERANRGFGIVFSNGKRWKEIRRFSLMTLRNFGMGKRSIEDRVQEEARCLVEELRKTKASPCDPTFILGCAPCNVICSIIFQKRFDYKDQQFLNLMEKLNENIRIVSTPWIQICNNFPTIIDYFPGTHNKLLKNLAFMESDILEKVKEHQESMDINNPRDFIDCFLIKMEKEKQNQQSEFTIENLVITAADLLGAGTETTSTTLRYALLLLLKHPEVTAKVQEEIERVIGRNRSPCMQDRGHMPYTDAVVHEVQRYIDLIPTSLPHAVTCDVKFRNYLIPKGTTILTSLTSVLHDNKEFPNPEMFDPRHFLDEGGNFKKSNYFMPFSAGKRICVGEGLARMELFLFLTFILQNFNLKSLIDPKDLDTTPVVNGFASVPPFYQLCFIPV
Sequence of Cytochrome P450 2D6 (P10635 whole entry): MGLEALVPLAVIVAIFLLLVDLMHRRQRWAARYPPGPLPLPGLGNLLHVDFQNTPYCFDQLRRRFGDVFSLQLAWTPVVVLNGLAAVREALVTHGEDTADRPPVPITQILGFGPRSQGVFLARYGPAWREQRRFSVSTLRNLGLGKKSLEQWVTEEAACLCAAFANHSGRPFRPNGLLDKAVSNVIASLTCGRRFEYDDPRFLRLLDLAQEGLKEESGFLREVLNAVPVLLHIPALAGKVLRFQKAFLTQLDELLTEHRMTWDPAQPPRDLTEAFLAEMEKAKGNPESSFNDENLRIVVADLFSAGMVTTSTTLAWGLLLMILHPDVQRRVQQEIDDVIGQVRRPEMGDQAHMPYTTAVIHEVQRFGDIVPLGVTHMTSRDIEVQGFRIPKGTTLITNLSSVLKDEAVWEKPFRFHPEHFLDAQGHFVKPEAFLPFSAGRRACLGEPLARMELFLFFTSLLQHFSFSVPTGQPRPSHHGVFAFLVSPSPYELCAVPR

Row | Compound | Ki [1] [nM] | Ki (Orexin receptor type 2) [nM] | also measured
1 | Cc1occc1-c1nnc(SCC(=O)Nc2nccs2)n1Cc1ccco1 | > 15800 | 1000 | –
2 | Cc1occc1-c1nnc(SCC(=O)Nc2ccccc2F)n1Cc1ccco1 | > 15800 | 2000 | –
3 | COc1ccc(NC(=O)CSc2nnc(-c3ccoc3C)n2Cc2ccco2)cc1 | > 15800 | 200 | –
4 | Cc1csc(NC(=O)CSc2nnc(-c3ccoc3C)n2Cc2ccco2)n1 | > 15800 | 100 | –
5 | Cc1cccc(C)c1NC(=O)CSc1nnc(-c2ccoc2C)n1Cc1ccco1 | > 15800 | > 15800 | –
6 | Cc1occc1-c1nnc(SCC(N)=O)n1Cc1ccco1 | > 15800 | > 15800 | –
7 | Cc1occc1-c1nnc(SCC(=O)Nc2ccc(F)cc2)n1Cc1ccco1 | > 15800 | 158 | –
8 | Cc1cc(C)cc(N(C(=O)CSc2nnc(-c3ccoc3C)n2Cc2ccco2)c2ccccn2)c1 | > 15800 | 398 | –
9 | Cc1nnc(NC(=O)CSc2nnc(-c3ccoc3C)n2Cc2ccco2)s1 | > 15800 | 398 | –
10 | Cc1ccccc1NC(=O)CSc1nnc(-c2ccoc2C)n1Cc1ccco1 | > 15800 | > 15800 | –
11 | COc1ccccc1NC(=O)CSc1nnc(-c2ccoc2C)n1Cc1ccco1 | > 15800 | 501 | –
12 | Cc1occc1-c1nnc(SCC(=O)NCCc2ccccc2)n1Cc1ccco1 | > 15800 | 1580 | –
13 | Cc1occc1-c1nnc(SCC(=O)NN2CCc3ccccc32)n1Cc1ccco1 | > 15800 | 1000 | –
14 | CCC(C)NC(=O)CSc1nnc(-c2ccoc2C)n1Cc1ccco1 (stereo not given) | > 15800 | > 15800 | –
15 | Cc1cc(C)cc(N(C(=O)CSc2nnc(-c3ccoc3C)n2Cc2ccco2)c2cccnc2)c1 | > 15800 | 2000 | –
16 | Cc1cccc(NC(=O)CSc2nnc(-c3ccoc3C)n2Cc2ccco2)c1C | > 15800 | > 15800 | –
17 | Cc1ccc(NC(=O)CSc2nnc(-c3ccoc3C)n2Cc2ccco2)cc1 | > 15800 | 39.8 | –
18 | Cc1ccc(C)c(NC(=O)CSc2nnc(-c3ccoc3C)n2Cc2ccco2)c1 | > 15800 | – | –
19 | Cc1occc1-c1nnc(SCC(=O)Nc2cccc(F)c2)n1Cc1ccco1 | > 15800 | 501 | –
20 | Cc1occc1-c1nnc(SCC(=O)Nc2cccc(-c3ccc4c(c3)OCO4)c2)n1Cc1ccco1 | > 15800 | 251 | –
21 | Cc1cc(C)cc(N(C(=O)CSc2nnc(-c3ccoc3C)n2Cc2ccco2)C2CNCCN2)c1 (stereo not given) | > 15800 | 631 | –
22 | Cc1occc1-c1nnc(SCC(=O)Nc2ccccc2)n1Cc1ccco1 | > 15800 | 1000 | –

The next compounds have a lower Ki [1] than those just listed; values first:

Row | Ki [1] [nM] | Ki (Orexin receptor type 2) [nM] | Compound | also measured
23 | 794 | 158 | Cc1occc1-c1nnc(SCC(=O)Nc2ccc(N(C)C)cc2)n1Cc1ccco1 | –
24 | 2510 | 15.8 | COc1ccc(C)cc1NC(=O)CSc1nnc(-c2ccoc2C)n1Cc1ccco1 | –
25 | 2000 | 100 | Cc1occc1-c1nnc(SCC(=O)Nc2ccc(Cl)cc2)n1Cc1ccco1 | –
26 | 0.316 | 0.398 | Cc1nc(C(=O)N2CCCC[C@H]2CNC(=O)c2cccc3occc23)c(-c2ccc(F)cc2)s1 [SB-649868] | –
27 | 631 | 2.51 | Cc1ccc(NC(=O)CSc2nnc(-c3ccoc3C)n2Cc2ccco2)cc1C | –
28 | 1260 | 501 | Cc1ccc(NC(=O)CSc2nnc(-c3ccoc3C)n2Cc2ccco2)c(C)c1 | –
29 | 2000 | 63.1 | Cc1occc1-c1nnc(SCC(=O)Nc2cccc(Cl)c2)n1Cc1ccco1 | –
30 | 2510 | 50.1 | Cc1cccc(NC(=O)CSc2nnc(-c3ccoc3C)n2Cc2ccco2)c1 | –
31 | 3160 | 316 | CC(=O)c1cccc(NC(=O)CSc2nnc(-c3ccoc3C)n2Cc2ccco2)c1 | –
32 | 1000 | 39.8 | Cc1occc1-c1nnc(SCC(=O)Nc2ccc(F)c(Cl)c2)n1Cc1ccco1 | –
33 | 2510 | 31.6 | CC(=O)c1ccc(NC(=O)CSc2nnc(-c3ccoc3C)n2Cc2ccco2)cc1 | –
34 | 794 | 1.58 | Cc1cc(C)cc(NC(=O)CSc2nnc(-c3ccoc3C)n2Cc2ccco2)c1 | inhibition [2]: Active; inhibition [3]: Active; IC50 (Cytochrome P450 1A2): > 5000 nM; IC50 (Cytochrome P450 2C9): > 5000 nM; IC50 (Cytochrome P450 2C19): > 5000 nM; IC50 (Cytochrome P450 2D6): > 5000 nM; IC50 (Cytochrome P450 3A4 [4]): > 5000 nM; IC50 (Cytochrome P450 3A4 [5]): 2000 nM
